Values quoted from earlier work as cited in PubChem BioAssay AID1259409 (Chemical Carcinogenesis Research Information System (CCRIS), 2018).

Test system: rodent chemically induced tumor inhibition, incidence and multiplicity
Assay: CCRIS tumor inhibitor studies
Conditions: Dose [Inhibitor]: 0, Route [Inhibitor]: ORAL, Species: RAT, Strain/Sex: F344/MALE

COc1cc(/C=C/C(=O)O[C@H]2CC[C@]34C[C@]35CC[C@]3(C)[C@@H]([C@H](C)CCC=C(C)C)CC[C@@]3(C)[C@@H]5CC[C@H]4C2(C)C)ccc1O
tumour outcome (control, treated, inhibition, significance) (Carcinogen: 2,2'-DIHYDROXY-DI-N-PROPYLNITROSAMINE, 53609-64-6, N-ETHYL-N-HYDROXYETHYLNITROSAMINE, 13147-25-6, 3,2'-DIMETHYL-4-AMINO-, Carcinogen: 2,2'-DIHYDROXY-DI-N-PROPYLNITROSAMINE, 53609-64-6, N-ETHYL-N-HYDROXYETHYLNITROSAMINE, 13147-25-6, 3,2'-DIMETHYL-4-AMINO-, 1% IN DIET FOR 32 WK BEGINNING 1 WK POST CARCINOGEN TREATMENT (STUDY DURATION: 36 WK), Target Tissue: Type of Lesion: LUNG: ADENOMA, Dose [Carcinogen]: 1000 MG/KG BW DHPN TWICE 1500 MG/KG BW EHEN TWICE, 75 MG/KG BW 3 TIMES ADMINISTERED OVER FIRST 3 WK, Promoter: NONE USED): 7/14 (50%), 11/13 (85%), -70%, not significant | tumour outcome (control, treated, inhibition, significance) (Carcinogen: 2,2'-DIHYDROXY-DI-N-PROPYLNITROSAMINE, 53609-64-6, N-ETHYL-N-HYDROXYETHYLNITROSAMINE, 13147-25-6, 3,2'-DIMETHYL-4-AMINO-, Carcinogen: 2,2'-DIHYDROXY-DI-N-PROPYLNITROSAMINE, 53609-64-6, N-ETHYL-N-HYDROXYETHYLNITROSAMINE, 13147-25-6, 3,2'-DIMETHYL-4-AMINO-, 1% IN DIET FOR 32 WK BEGINNING 1 WK POST CARCINOGEN TREATMENT (STUDY DURATION: 36 WK), Target Tissue: Type of Lesion: THYROID GLAND: ADENOMA, Dose [Carcinogen]: 1000 MG/KG BW DHPN TWICE, 1500 MG/KG BW EHEN TWICE 75 MG/KG BW 3 TIMES ADMINISTERED OVER FIRST 3 WK, Promoter: NONE USED): 3/14 (21%), 2/13 (15%), 29%, not significant | tumour outcome (control, treated, inhibition, significance) (Carcinogen: 2,2'-DIHYDROXY-DI-N-PROPYLNITROSAMINE, 53609-64-6, N-ETHYL-N-HYDROXYETHYLNITROSAMINE, 13147-25-6, 3,2'-DIMETHYL-4-AMINO-, Carcinogen: 2,2'-DIHYDROXY-DI-N-PROPYLNITROSAMINE, 53609-64-6, N-ETHYL-N-HYDROXYETHYLNITROSAMINE, 13147-25-6, 3,2'-DIMETHYL-4-AMINO-, 1% IN DIET FOR 32 WK BEGINNING 1 WK POST CARCINOGEN TREATMENT (STUDY DURATION: 36 WK), Target Tissue: Type of Lesion: THYROID GLAND: CARCINOMA, Dose [Carcinogen]: 1000 MG/KG BW DHPN TWICE, 1500 MG/KG BW EHEN TWICE, 75 MG/KG BW 3 TIMES ADMINISTERED OVER FIRST 3 WK, Promoter: NONE USED): 3/14 (21%), 1/13 (8%), 62%, not significant | tumour outcome (control, treated, inhibition, significance) (Carcinogen: 2,2'-DIHYDROXY-DI-N-PROPYLNITROSAMINE, 53609-64-6, N-ETHYL-N-HYDROXYETHYLNITROSAMINE, 13147-25-6, 3,2'-DIMETHYL-4-AMINO-, Carcinogen: 2,2'-DIHYDROXY-DI-N-PROPYLNITROSAMINE, 53609-64-6, N-ETHYL-N-HYDROXYETHYLNITROSAMINE, 13147-25-6, 3,2'-DIMETHYL-4-AMINO-, 1% IN DIET FOR 32 WK BEGINNING 1 WK POST CARCINOGEN TREATMENT (STUDY DURATION: 36 WK), Target Tissue: Type of Lesion: URINARY BLADDER: CARCINOMA, Dose [Carcinogen]: 1000 MG/KG BW DHPN TWICE, 1500 MG/KG BW EHEN TWICE, 75 MG/KG BW 3 TIMES ADMINISTERED OVER FIRST 3 WK, Promoter: NONE USED): 1/14 (7%), 2/13 (15%), -114%, not significant | outcome (Carcinogen: 2,2'-DIHYDROXY-DI-N-PROPYLNITROSAMINE, 53609-64-6, N-ETHYL-N-HYDROXYETHYLNITROSAMINE, 13147-25-6, 3,2'-DIMETHYL-4-AMINO-, Carcinogen: 2,2'-DIHYDROXY-DI-N-PROPYLNITROSAMINE, 53609-64-6, N-ETHYL-N-HYDROXYETHYLNITROSAMINE, 13147-25-6, 3,2'-DIMETHYL-4-AMINO-, 1% IN DIET FOR 32 WK BEGINNING 1 WK POST CARCINOGEN TREATMENT (STUDY DURATION: 36 WK), Target Tissue: Type of Lesion: URINARY BLADDER: PAPILLOMA, Dose [Carcinogen]: 1000 MG/KG BW DHPN TWICE, 1500 MG/KG BW EHEN TWICE, 75 MG/KG BW 3 TIMES ADMINISTERED OVER FIRST 3 WK, Promoter: NONE USED): 0/14 (0%), 3/13 (23%), -100%, not significant | tumour outcome (control, treated, inhibition, significance) (Carcinogen: 2,2'-DIHYDROXY-DI-N-PROPYLNITROSAMINE, 53609-64-6, N-ETHYL-N-HYDROXYETHYLNITROSAMINE, 13147-25-6, 3,2'-DIMETHYL-4-AMINO-, Carcinogen: 2,2'-DIHYDROXY-DI-N-PROPYLNITROSAMINE, 53609-64-6, N-ETHYL-N-HYDROXYETHYLNITROSAMINE, 13147-25-6, 3,2'-DIMETHYL-4-AMINO-, 1% IN THE DIET FOR 32 WK BEGINNING 1 WK POST CARCINOGEN TREATMENT (STUDY DURATION: 36 WK), Target Tissue: Type of Lesion: LARGE INTESTINE: ADENOMA, Dose [Carcinogen]: 1000 MG/KG BW DHPN TWICE, 1500 MG/KG BW EHEN TWICE, 75 MG/KG BW 3 TIMES ADMINISTERED OVER FIRST 3 WK, Promoter: NONE USED): 7/14 (50%), 5/13 (38%), 24%, not significant | tumour outcome (control, treated, inhibition, significance) (Carcinogen: 2,2'-HYDROXY-DI-N-PROPYLNITROSAMINE, 53609-64-6, N-ETHYL-N-HYDROXYETHYL- NITROSAMINE, 13147-25-6, 3,2'-DIMETHYL-4-AM, Carcinogen: 2,2'-HYDROXY-DI-N-PROPYLNITROSAMINE, 53609-64-6, N-ETHYL-N-HYDROXYETHYL- NITROSAMINE, 13147-25-6, 3,2'-DIMETHYL-4-AM, 1% IN DIET BEGINNING 1 WK POST LAST CARCINOGEN DOSE AND CONTINUING FOR 32 WK (STUDY DURATION: 36 WK), Target Tissue: Type of Lesion: URINARY BLADDER: CARCINOMA, Dose [Carcinogen]: 1000 MG/KG IP DHPN 2X, 1500 MG/KG GAV EHEN 2X AND 75 MG/KG SC DMAB 3X GIVEN OVER THE INITIAL 3 WK PERIOD AT 3-4 D INTERV, Promoter: NONE USED): 1/14 (7%), 2/13 (15%), -114%, not calculated | tumour outcome (control, treated, inhibition, significance) (Carcinogen: 3,2'-DIMETHYL-4-AMINOBIPHENYL, 13394-86-0, 2% IN BASAL DIET BEGINNING POST CARCINOGEN TREATMENT AND CONTINUING FOR 40 WK (STUDY DURATION: 60 WK), Target Tissue: Type of Lesion: PANCREAS: ACINAR CELL NODULE, Dose [Carcinogen]: 50 MG/KG 1/2 WK FOR 20 WK TO RATS MAINTAINED ON ETHINYL ESTRADIOL CONTAINING DIET (0.75 PPM) FOR 1 WK CYCLED WITH ETHINY, Promoter: ETHINYL ESTRADIOL, 57-63-6): 4/10 (40%), 5/13 (38%), 5%, not significant | tumour outcome (control, treated, inhibition, significance) (Carcinogen: 3,2'-DIMETHYL-4-AMINOBIPHENYL, 13394-86-0, 2% IN BASAL DIET BEGINNING POST CARCINOGEN TREATMENT AND CONTINUING FOR 40 WK (STUDY DURATION: 60 WK), Target Tissue: Type of Lesion: PROSTATE: CARCINOMA, Dose [Carcinogen]: 50 MG/KG 1/2 WK FOR 20 WK TO RATS MAINTAINED ON ETHINYL ESTRADIOL CONTAINING DIET (0.75 PPM) FOR 1 WK CYCLED WITH ETHINY, Promoter: ETHINYL ESTRADIOL, 57-63-6): 5/10 (50%), 5/13 (38%), 24%, not significant
